Results published in patent publication US9925179B2, “Combination therapy for mental disorders” (priority 2014, dated 2018).
Where “and” joins values, the source holds several entries; their conditions need not be identical. Identical values can stand only once.

Experiments:
[1] = Metabolic profiles (cholesterol, HDL-C, LDL-C, triglyceride, glucose) in 12-week add-on trial; format: in vivo, human; details: for Within group change (baseline minus endpoint) Glucose, Mean ± SD / Within group change (baseline minus endpoint) HDL-C, Mean ± SD / Within group change (baseline minus endpoint) LDL-C, Mean ± SD / Within group change (baseline minus endpoint) Total cholesterol, Mean ± SD / Within group change (baseline minus endpoint) Triglyceride, Mean ± SD: BP-II patients, add-on to valproic acid, 12-week follow-up; for Glucose, difference versus placebo, B (standardized coefficient) / HDL-C, difference versus placebo, B (standardized coefficient) / LDL-C, difference versus placebo, B (standardized coefficient) / Total Cholesterol, difference versus placebo, B (standardized coefficient) / Triglyceride, difference versus placebo, B (standardized coefficient): GEE interaction term, placebo as reference, controlling for age, gender, treatment duration, HDRS and YMRS
Excerpt: (§1) 250˜300 male and female BP-II patients (18˜65 years old) were recruited, from the Department of Psychiatry at National Cheng Kung University Hospital and Tri-Service General Hospital into a 12-week treatment. The research protocol was examined for approval by the Institutional Review Board for the Protection of Human Subjects at National Cheng Kung University Hospital and Tri-Service General Hospital. All participants were given a complete description of the study and were asked to sign an informed consent before the study began. Patients who had major, mental illnesses other than BP-II and who had taken memantine or DM within 1 week before the first dose of the double-blind medication were excluded. The Chinese Version of Modified Schedule of Affective Disorder and Schizophrenia-Life Time (SADS-L) will be conducted for confirmation of the diagnosis. […] After each patient had been diagnosed based on DSM-IV criteria by a senior psychiatrist and confirmed by a clinical psychologist using a structured interview, SADS-L, the severity of each patient's clinical symptoms was assessed using the 17-item Hamilton Rating Scale for Depression (HRSD) and the Young Mania Rating Scale (YMRS). All the patients at Screen who score 18 on the HRSD or 14 on the YMRS were recruited. Eligible patients were randomly assigned into four treatment groups (n=40-45 for each group) in a double-blind manner and all groups matched in demographic characteristics, symptom severity, while they received open-label valproic acid (VPA) treatment (500 mg and 1000 mg daily [[…] in plasma]): 1) DM (30 mg/day), 2) memantine (5 mg/day), 3) combination of DM and memantine (30 mg/day DM and 5 mg/day memantine), and 4) placebo respectively for 12 weeks. Patients were randomized into 4 groups through a computer-generated randomization table to receive placebo or any of active treatments in a 1:1:1:1 ratio. The patients with side-effect intolerance or clinical worsening were withdrawn earlier.
(§2) Symptom severity, immunological parameters (plasma tumor necrosis factor α (TNF-α) and C-reactive protein (CRP)) and plasma brain derived neurotrophic factor (BDNF) were examined regularly. Metabolic profiles (cholesterol, triglyceride, HbA1C, fasting serum glucose, body mass index [BMI]) were measured at baseline and 2, 8, and 12 weeks. Concomitant benzodiazepine medication (lorazepam <8 mg) was used for nighttime sedation, and to treat agitation and insomnia during the study. Up to 20 mg/daily of fluoxetine was permitted for associated depressive symptoms.
(§3) The intent to-treat (ITT) analysis set included all randomized patients who received at least one dose of study drug, and had one baseline assessment and at least one after baseline. All the outcome variables were analyzed in the ITT set, including HDRS, YMRS, cytokine levels, plasma BDNF levels and metabolic parameters; missing data was filled in using the last observation carried forward (LOCF) method.
(§4) The overall within-group changes of each outcome over the 12 weeks were analyzed by paired sample t-test. To compare the difference in outcomes of add-on medication (DM30, MM5, and DM30+MM5) versus placebo, generalized estimating equation (GEE) was adopted. A total of 10 models ran with each outcome as a dependent variable. In each model, add-on medication received (DM30, MM5, and DM30+MM5 vs. controls), treatment duration, treatment received X treatment duration, gender, and age were included as independent variables. The covariance structure employed was autoregressive (AR(1)) model. The placebo group was used as reference group. The interaction term of treatment received X treatment duration was regarded as effect of add-on DM30, MM5, and DM30+MM5. To analyze correlations between cytokines, BDNF and metabolic profiles, GEE analysis was used as well. […]

BP-II patients [2] = test: Side effects / discontinuation in 12-week add-on trial; format: in vivo, human; details: 12-week trial, n=66 in group
Excerpt: 250˜300 male and female BP-II patients (18˜65 years old) were recruited, from the Department of Psychiatry at National Cheng Kung University Hospital and Tri-Service General Hospital into a 12-week treatment. The research protocol was examined for approval by the Institutional Review Board for the Protection of Human Subjects at National Cheng Kung University Hospital and Tri-Service General Hospital. All participants were given a complete description of the study and were asked to sign an informed consent before the study began. Patients who had major, mental illnesses other than BP-II and who had taken memantine or DM within 1 week before the first dose of the double-blind medication were excluded. […] After each patient had been diagnosed based on DSM-IV criteria by a senior psychiatrist and confirmed by a clinical psychologist using a structured interview, SADS-L, the severity of each patient's clinical symptoms was assessed using the 17-item Hamilton Rating Scale for Depression (HRSD) and the Young Mania Rating Scale (YMRS). […]
The severity of side effects was evaluated by using the Chinese version of Side-Effects Checklist which derived from Psychiatric Rating and Diagnostic Instruments (TRIMS, 1972) and included 7 categories as follows: 1) Mental Status; 2) Genito-Urinary; 3) Cardiovascular; 4) Head-Neck; 5) Extremities; 6) Skin; 7) Gastrointestinal. […]

BP-II patients [3] = test: Symptom severity (HDRS, YMRS) in 12-week randomized double-blind placebo-controlled add-on trial; format: in vivo, human; details: for Within group change (baseline minus endpoint) HDRS, Mean ± SD / Within group change (baseline minus endpoint) YMRS, Mean ± SD: BP-II patients, add-on to valproic acid, 12-week follow-up; for HDRS, difference versus placebo, B (standardized coefficient) / YMRS, difference versus placebo, B (standardized coefficient): GEE, treatment group x treatment duration interaction, placebo as reference, controlling for age, gender, treatment duration
Excerpt: as §1
Efficacy will be assessed by the YMRS, HDRS and Side-Effects.
Clinical ratings were performed by research psychiatric professionals who were well-trained and experienced in the rating scales. All assessments were blind to treatment assignment and completed at baseline and at the end of week 1, 2, 4, 8 and 12. Routine laboratory tests, including CBC and biochemistry were checked at baseline and the end of week 12.
(2) Young Mania Rating Scale (YMRS) and 17-item Hamilton Depression Rating Scale (HDRS)
Those clinically suspected of having a mood disorder were invited to be interviewed with the Chinese version SADS-L and diagnosed as having BP-II. The severity of current symptoms was assessed by using the YMRS and HDRS. The diagnosis of a mood disorder was made according to DSM-IV criteria, except for BP-II, for which we used a 2-day instead of a 4-day duration for hypomania.
as §3
as §4, with “group.” for “group. The interaction term of treatment received X treatment duration was regarded as effect of add-on DM30, MM5, and DM30+MM5. To analyze correlations between cytokines, BDNF and metabolic profiles, GEE analysis was used as well.”

CRP = test: Plasma CRP by ELISA in 12-week add-on trial; format: in vivo, human; details: for Within group change (baseline minus endpoint) CRP, Mean ± SD: BP-II patients, plasma, add-on to valproic acid, 12-week follow-up; for CRP, difference versus placebo, B (standardized coefficient): GEE interaction term, placebo as reference, controlling for age, gender, treatment duration, HDRS and YMRS
TNF-α = test: Plasma TNF-α by ELISA in 12-week add-on trial; format: in vivo, human; details: for Within group change (baseline minus endpoint) TNF-α, Mean ± SD: BP-II patients, plasma, add-on to valproic acid, 12-week follow-up; for TNF-α, difference versus placebo, B (standardized coefficient): GEE interaction term, placebo as reference, controlling for age, gender, treatment duration, HDRS and YMRS
Excerpt: as §1
Serum levels of DM, memantine, plasma BDNF, and cytokines were measured. […] Plasma BDNF, CRP, TNF-α, were measured at baseline, 1, 2, 4, 8 and 12 weeks and quantified using the enzyme-linked immunosorbent assays (ELISAs). Cytokine levels were quantified using an antibody pair assay system (Flexia; BioSource Intl., Camarillo, Calif.). […]
Symptom severity, immunological parameters (plasma tumor necrosis factor α (TNF-α) and C-reactive protein (CRP)) and plasma brain derived neurotrophic factor (BDNF) were examined regularly. Metabolic profiles (cholesterol, triglyceride, HbA1C, fasting serum glucose, body mass index [BMI]) were measured at baseline and 2, 8, and 12 weeks. […]
(§5) The overall within-group changes of each outcome over the 12 weeks were analyzed by paired sample t-test. […]

[4] = tested on: opioid addictive behavior; details: rat, 0.2 mg/kg (1/100 dosage); cited from earlier work
BDNF = test: Plasma BDNF by ELISA in 12-week add-on trial; format: in vivo, human; details: for Within group change (baseline minus endpoint) BDNF, Mean ± SD: BP-II patients, plasma, add-on to valproic acid, 12-week follow-up; for BDNF, difference versus placebo, B (standardized coefficient): GEE interaction term, placebo as reference, controlling for age, gender, treatment duration, HDRS and YMRS
Excerpt: as §1
Serum levels of DM, memantine, plasma BDNF, and cytokines were measured. […] of whole blood was drawn and collected from the antecubital vein. Plasma were isolated from the whole blood after the 3000 g centrifugation at 4° C. for 15 min and stored at −80° C. immediately. Plasma BDNF, CRP, TNF-α, were measured at baseline, 1, 2, 4, 8 and 12 weeks and quantified using the enzyme-linked immunosorbent assays (ELISAs). Cytokine levels were quantified using an antibody pair assay system (Flexia; BioSource Intl., Camarillo, Calif.). Sample processing and data analysis were done according to the manufacturer's instructions. The low limit sensitivity was 0.126 pg/ml, 0.057 pg/ml, and 20 pg/ml for TNF-α, IL-1β, and BDNF respectively. Finally, HPLC with UV detector and therapeutic drug monitoring (TDM) was used to measure the plasma DM and VPA level respectively.
as §2, with “Up to 20 mg/daily of fluoxetine was permitted for associated depressive symptoms.” left out
as §5

[5] = cited from earlier work
[6] = Example 2: 4-week clinical trial of dextromethorphan added on to depakine, cholesterol and LDL; format: in vivo, human; details: 30 mg/day added on to depakine
Description: This example was a clinical trial for the treatment of bipolar II disorder using 30 mg/day of dextromethorphan (off label use) adding on to depakine (plasma level […]). 44 patients with bipolar II disorder were recruited, and change of cholesterol was monitored only over 4 weeks.

SMILES | Within group change (baseline minus endpoint) Glucose, Mean ± SD [1] [mg/dL] | Within group change (baseline minus endpoint) HDL-C, Mean ± SD [1] [mg/dL] | Within group change (baseline minus endpoint) LDL-C, Mean ± SD [1] [mg/dL] | Within group change (baseline minus endpoint) Total cholesterol, Mean ± SD [1] [mg/dL] | Within group change (baseline minus endpoint) Triglyceride, Mean ± SD [1] [mg/dL] | Glucose, difference versus placebo, B (standardized coefficient) [1] | HDL-C, difference versus placebo, B (standardized coefficient) [1] | LDL-C, difference versus placebo, B (standardized coefficient) [1] | Total Cholesterol, difference versus placebo, B (standardized coefficient) [1] | Triglyceride, difference versus placebo, B (standardized coefficient) [1] | Within group change (baseline minus endpoint) HDRS, Mean ± SD (BP-II patients [3]) | Within group change (baseline minus endpoint) YMRS, Mean ± SD (BP-II patients [3]) | HDRS, difference versus placebo, B (standardized coefficient) (BP-II patients [3]) | YMRS, difference versus placebo, B (standardized coefficient) (BP-II patients [3]) | Within group change (baseline minus endpoint) CRP, Mean ± SD (CRP) [ng/mL] | CRP, difference versus placebo, B (standardized coefficient) (CRP) | Within group change (baseline minus endpoint) TNF-α, Mean ± SD (TNF-α) [pg/mL] | TNF-α, difference versus placebo, B (standardized coefficient) (TNF-α) | Within group change (baseline minus endpoint) BDNF, Mean ± SD (BDNF) [ng/mL] | BDNF, difference versus placebo, B (standardized coefficient) (BDNF) | also measured
CC12CC3CC(C)(C1)CC(N)(C3)C2 [MM5, memantine] | -3.3 ± 22.6 | 2.4 ± 8.7 | 2.6 ± 22.0 | 0.5 ± 24.5 | -10.7 ± 38.7 | 7.63 | −0.07 | 4.45 | 3.14 | 8.81 | 6.3 ± 4.9 | 4.6 ± 3.9 | −1.33 | −0.98 | -12.6 ± 1269.4 | 0.09 | 0.3 ± 1.8 | −0.15 | 0.3 ± 7.6 | 0.02 | patients discontinuing with poor tolerance to a side effect (dizziness) (BP-II patients [2]): One; opioid addictive behavior by conditioned place preference, in words [4]: effective
COc1ccc2c(c1)[C@]13CCCC[C@@H]1[C@H](C2)N(C)CC3 [DM30, dextromethorphan] | 9.0 ± 38.1 | 1.6 ± 10.2 | -0.9 ± 23.1 | -0.1 ± 28.7 | -11.6 ± 168.4 | −5.33 | 0.79 | 8.80 | 6.95 | 28.08 | 6.4 ± 4.7 | 4.7 ± 3.4 | −1.38 | −1.00 | 10.9 ± 1290.3 | 0.05 | 0.1 ± 2.5 | −0.04 | -2.3 ± 8.3 | 2.94 | plasma levels of DM ([5]; BP patients, U.S. Pat. No. 8,785,472): 5 to 100 ng/mL; plasma DM concentrations ([5]; patients taking 30-60 mg/70 kg of DM, listed as DM): 10-30 ng/ml and 28-84 nM; cholesterol and LDL in human, in words ([6]; 4 weeks): decreased; low density lipid protein (LDL), first value (before treatment) ([6]; 44 bipolar II patients): 127.70 ± 34.24 mg/dL; total cholesterol, first value (before treatment) ([6]; 44 bipolar II patients): 194.70 ± 39.49 mg/dL; total cholesterol over 4-week of treatment, second value ([6]; 44 bipolar II patients, P=0.09): 186.16 ± 37.95 mg/dL; low density lipid protein (LDL) over 4-week of treatment, second value ([6]; 44 bipolar II patients, P=0.13): 120.84 ± 34.013 mg/dL; BDNF level, within group change, in words (BDNF; after 12 weeks of treatment): Significant improved
